Source: patent publication US11046691B1 (IDEAYA BIOSCIENCES, INC., priority 2018, dated 2021)

The compounds below were run against hMAT2A (Homo sapiens (Human), UniProt P31153) (assay: Malachite Green Assay (MAT2A enzyme inhibition)). Details: hMAT2A 50 nM, substrates 500 uM each, 1 hour.
Assay type: biochemical
Experimental: The ability of the compound of present disclosure to inhibit MAT2A enzyme was determined using the Malachite Green or Phosphate Sensor Fluorescence Assay described below.
L-methionine Substrate: Alfa Aesar catalog #J61904
ATP Substrate: Alfa Aesar cat #J60336
Malachite Green Detection Reagent: Millipore Sigma catalog #MAK307-1KT
Assay buffer: 50 mM Tris, pH 7.5/50 mM KCl/10 mM MgCl2/0.01% Brij-35/1 mM DTT/0.1% BGG
The plate was centrifuged at 1000 rpm for 1 minute and then incubated at room temperature for 1 hour. 5 μL of malachite green detection reagent was added to all the test wells and the plate was centrifuged at 1000 rpm for 1 minute and then incubated at room temperature for 30 minutes. The plate was read for absorbance at 620 nm on a plate reader (e.g., Infinite M1000).

Chain of hMAT2A (P31153 whole entry): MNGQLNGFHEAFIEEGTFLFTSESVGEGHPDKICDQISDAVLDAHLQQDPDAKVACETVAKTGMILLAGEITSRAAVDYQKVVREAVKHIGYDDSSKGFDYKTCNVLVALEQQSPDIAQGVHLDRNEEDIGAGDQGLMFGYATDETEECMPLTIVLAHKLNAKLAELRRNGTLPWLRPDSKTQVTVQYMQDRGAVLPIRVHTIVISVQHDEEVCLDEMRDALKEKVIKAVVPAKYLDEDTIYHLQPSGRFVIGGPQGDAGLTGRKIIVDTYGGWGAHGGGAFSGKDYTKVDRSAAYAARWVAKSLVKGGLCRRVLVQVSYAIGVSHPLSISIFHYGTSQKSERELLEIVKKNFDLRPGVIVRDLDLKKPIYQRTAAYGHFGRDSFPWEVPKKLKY

Compound | IC50 [nM]
O=c1nc(N2CCC2)c2ccc(Cl)cc2n1-c1cc(O)cc(F)c1 [Example 38, 4-azetidinyl-7-chloro-1-(5-fluoro-3-hydroxy-phenyl)hydroquinazolin-2-one] | < 200
CNc1nc(=O)n(-c2cccc(O)c2)c2cc(Cl)ccc12 [Example 46, 7-chloro-1-(3-hydroxyphenyl)-4-(methylamino)-hydroquinazolin-2-one] | < 200
CNc1nc(=O)n(-c2cnccn2)c2cc(Cl)ccc12 | 200 to 500
O=c1nc(NCc2ccccc2)c2ccc(Cl)cc2n1-c1ccccc1 [Example 23, 4-(benzylamino)-7-chloro-1-phenyl-quinazolin-2(1H)-one] | 200 to 500
O=c1nc(N2CCC2)c2ccc(Cl)cc2n1-c1ccccc1 [Example 25, 4-(azetidin-1-yl)-7-chloro-1-phenyl-quinazolin-2(1H)-one] | < 200
CNc1nc(=O)n(-c2ccccc2)c2cc(C(F)(F)F)ccc12 [Example 51, 4-(methylamino)-1-phenyl-7-(trifluoro-methyl)-quinazolin-2(1H)-one] | < 200
O=c1nc(N2CCOCC2)c2ccc(Cl)cc2n1-c1ccccc1 [Example 28, 7-chloro-4-morpholino-1-phenyl-quinazolin-2(1H)-one] | 200 to 500
N#CC1CN(c2nc(=O)n(-c3cccc(F)c3)c3cc(Cl)ccc23)C1 [Example 82, 1-(7-chloro-1-(3-fluorophenyl)-2-oxo-1,2-dihydroquinazolin-4-yl)azetidine-3-carbonitrile] | < 200
CN(C)c1nc(=O)n(-c2ccccc2)c2cc(F)ccc12 [Example 35, 4-(dimethylamino)-7-fluoro-1-phenyl-quinazolin-2(1H)-one] | < 200
CNc1nc(=O)n(-c2ncccn2)c2cc(Cl)ccc12 | < 200
CNc1nc(=O)n(-c2ccccc2)c2cc(Br)ccc12 | < 200
CN1CCN(c2nc(=O)n(-c3ccccc3)c3cc(Cl)ccc23)CC1 [Example 27, 7-chloro-4-(4-methylpiperazin-1-yl)-1-phenyl-quinazolin-2(1H)-one] | 1000 to 10000
CNc1nc(=O)n(-c2ccccc2F)c2cc(Cl)ccc12 [Example 57, 7-chloro-1-(2-fluorophenyl)-4-(methylamino)quinazolin-2(1H)-one] | < 200
CNc1nc(=O)n(-c2cc(O)cc(F)c2)c2cc(Cl)ccc12 | < 200
CN(C)c1nc(=O)n(-c2cccc(CCOc3ccccc3)c2)c2cc(Cl)ccc12 [Example 75, 7-chloro-4-(dimethylamino)-1-(3-(2-phenoxyethyl)phenyl)quinazolin-2(1H)-one] | < 200
O=c1nc(Nc2ccccn2)c2ccc(Cl)cc2n1-c1ccccc1 [Example 32, 7-chloro-1-phenyl-4-(pyridin-2-yl-amino)quinazolin-2(1H)-one] | 200 to 500
CNc1nc(=O)n(-c2ccccc2)c2cc(C3CC3)ccc12 [Example 45, 7-cyclopropyl-4-(methylamino)-1-phenylquinazolin-2(1H)-one] | < 200
CN(C)c1nc(=O)n(-c2cccc(C#N)c2)c2cc(Cl)ccc12 [Example 81, 3-[4-(dimethylamino)-7-chloro-2-oxohydroquinazolinyl]benzenecarbo-nitrile] | < 200
CNc1nc(=O)n(-c2nccs2)c2cc(Cl)ccc12 [Example 17, 7-chloro-4-(methylamino)-1-(thiazol-2-yl)-quinazolin-2(1H)-one] | < 200
O=c1nc(NC2COC2)c2ccc(Cl)cc2n1-c1ccccc1 [Example 21, 7-Chloro-4-(oxetan-3-ylamino)-1-phenylquinazolin-2(1H)-one] | 200 to 500
CNc1nc(=O)n(-c2ccccn2)c2cc(Cl)ccc12 | 200 to 500
COc1cccc(-n2c(=O)nc(N(C)C)c3ccc(Cl)cc32)c1 [Example 76] | < 200
CNc1nc(=O)n(-c2cccc(CCCO)c2)c2cc(Cl)ccc12 [Example 48, 7-chloro-1-[3-(3-hydroxypropyl)-phenyl]-4-(methylamino)hydro-quinazolin-2-one] | < 200
CNc1nc(=O)n(-c2cccc(CCO)c2)c2cc(Cl)ccc12 [Example 47, 7-chloro-1-[3-(2-hydroxyethyl)phenyl]-4-(methylamino)-hydroquinazolin-2-one] | < 200
CNc1nc(=O)n(-c2cncnc2)c2cc(Cl)ccc12 | < 200
CN(C)c1nc(=O)n(-c2cccc(Br)c2)c2cc(Cl)ccc12 [Example 60, 1-(3-bromophenyl)-7-chloro-4-(dimethylamino)quinazolin-2(1H)-one] | < 200

Compound | IC50 [nM]
CN(C)c1nc(=O)n(-c2ccccc2)c2cc(Br)ccc12 [Example 34, 7-bromo-4-(dimethylamino)-1-phenyl-quinazolin-2(1H)-one] | < 200
CNc1nc(=O)n(-c2ccccc2)c2cc(Cl)cc(OC)c12 [Example 70, 7-chloro-5-methoxy-4-(methylamino)-1-phenylquinazolin-2(1H)-one] | < 200
CNc1nc(=O)n(-c2ccccc2)c2cc(Cl)c(OC)cc12 [Example 73, 7-chloro-6-methoxy-4-(methylamino)-1-phenylquinazolin-2(1H)-one] | < 200
O=c1nc(N[C@H]2CCOC2)c2ccc(Cl)cc2n1-c1ccccc1 [Example 22, (S)-7-chloro-1-phenyl-4-((tetrahydro-furan-3-yl)amino)-quinazolin-2(1H)-one] | 200 to 500
CNc1nc(=O)n(-c2ccccc2)c2cc(Cl)ccc12 [Example 2, 7-chloro-4-(methylamino)-1-phenylquinazolin-2(1H)-one] | < 200
O=c1nc(-n2cccn2)c2ccc(Cl)cc2n1-c1ccccc1 [Example 29, 7-chloro-1-phenyl-4-(1H-pyrazol-1-yl)quinazolin-2(1H)-one] | 1000 to 10000
Cc1c(Cl)ccc2c(N(C)C)nc(=O)n(-c3ccccc3)c12 [Example 43, 7-chloro-4-(dimethylamino)-8-methyl-1-phenyl-quinazolin-2(1H)-one] | 1000 to 10000
CN(C)c1nc(=O)n(-c2ccccc2)c2c(Cl)c(Cl)ccc12 [Example 42, 7,8-dichloro-4-(dimethylamino)-1-phenylquinazolin-2(1H)-one] | 200 to 500
CN(c1nc(=O)n(-c2cccc(F)c2)c2cc(Cl)ccc12)C1CC1 [Example 39, 7-chloro-4-(cyclopropylmethylamino)-1-(3-fluorophenyl)hydroquinazolin-2-one] | < 200
CN(C)c1nc(=O)n(-c2ccc(F)cc2)c2cc(Cl)ccc12 [Example 36, 4-(dimethylamino)-7-chloro-1-(4-fluorophenyl)-hydroquinazolin-2-one] | < 200
CNc1nc(=O)n(-c2cccc(C)c2)c2cc(Cl)ccc12 [Example 55] | < 200
O=c1nc(NCC(F)F)c2ccc(Cl)cc2n1-c1ccccc1 [Example 31, 7-chloro-4((2,2-difluoroethyl)amino)-1-phenyl-quinazolin-2 (1H)-one] | 500 to 1000
CNc1nc(=O)n(-c2ccccc2)c2cc(C)ccc12 [Example 44, 7-methyl-4-(methylamino)-1-phenyl-quinazolin-2(1H)-one] | < 200
CNc1nc(=O)n(-c2cccc(F)c2)c2cc(Cl)ccc12 [Example 61, 7-chloro-1-(3-fluorophenyl)-4-(methylamino)quinazolin-2(1H)-one] | < 200
CNc1nc(=O)n(-c2ccccc2)c2cc(Cl)cc(F)c12 | < 200
O=c1nc(N2CC(O)C2)c2ccc(Cl)cc2n1-c1ccccc1 [Example 74, 7-chloro-4-(3-hydroxyazetidin-1-yl)-1-phenylquinazolin-2(1H)-one] | < 200
CNc1nc(=O)n(-c2ccccc2)c2cc(C#N)ccc12 [Example 50, 4-(methylamino)-2-oxo-1-phenyl-1,2-dihydro-quinazoline-7-carbonitrile] | < 200
CNc1nc(=O)n(-c2cccc(Cl)c2)c2cc(Cl)ccc12 [Example 56, 7-Chloro-1-(3-chlorophenyl)-4-(methylamino)hydroquinazolin-2-one] | < 200
COc1nc(=O)n(-c2ccccc2)c2cc(Cl)ccc12 [Example 62, 7-chloro-4-methoxy-1-phenyl-quinazolin-2(1H)-one] | 200 to 500
CN(C)c1nc(=O)n(-c2cccc(CO)c2)c2cc(Cl)ccc12 [Example 77] | < 200
O=c1nc(N2CCCCC2)c2ccc(Cl)cc2n1-c1ccccc1 [Example 66, 7-chloro-1-phenyl-4-(piperidin-1-yl)-quinazolin-2(1H)-one] | < 200
CNc1nc(=O)n(-c2cn[nH]c2)c2cc(Cl)ccc12 | < 200
CN(C)CCNc1nc(=O)n(-c2ccccc2)c2cc(Cl)ccc12 [Example 64, 7-chloro-4-((2-(dimethylamino)ethyl)-amino)-1-phenylquinazolin-2(1H)-one] | 1000 to 10000
CNc1nc(=O)n(-c2cncs2)c2cc(Cl)ccc12 [Example 18, 7-chloro-4-(methylamino)-1-(thiazol-5-yl)-quinazolin-2(1H)-one] | < 200
CNc1nc(=O)n(-c2ccccc2)c2cc(OC)ccc12 [Example 49, 7-methoxy-4-(methylamino)-1-phenyl-quinazolin-2(1H)-one] | < 200
